According to US20180112258A1, “MEDICAL USES AND METHODS FOR TREATING CANCER USING MONOPOLAR SPINDLE 1 (MPS1) KINASE INHIBITORS” (THE INSTITUTE OF CANCER RESEARCH: ROYAL CANCER HOSPITAL, priority 2015, published 2018):
Numbering of substitutions follows the chain as printed. Read-outs that look alike come from different tables or passages of the source. Each block holds one molecule with its values, some of them ahead of it.

Columns and labels:
[1] = target: T1, recombinant full-length MPS1 p.C604W (Homo sapiens, UniProt P33981, C604W); assay: Recombinant MPS1 kinase assay (electrophoretic mobility shift), p.C604W; format: biochemical; settings: for IC50: C604W, mean ± SD, quadruplicate
T1 construct: made in house; host or cells: Sf9 insect cells (baculovirus, modified pFastBac1)
T1 sequence (P33981 1-857 C604W): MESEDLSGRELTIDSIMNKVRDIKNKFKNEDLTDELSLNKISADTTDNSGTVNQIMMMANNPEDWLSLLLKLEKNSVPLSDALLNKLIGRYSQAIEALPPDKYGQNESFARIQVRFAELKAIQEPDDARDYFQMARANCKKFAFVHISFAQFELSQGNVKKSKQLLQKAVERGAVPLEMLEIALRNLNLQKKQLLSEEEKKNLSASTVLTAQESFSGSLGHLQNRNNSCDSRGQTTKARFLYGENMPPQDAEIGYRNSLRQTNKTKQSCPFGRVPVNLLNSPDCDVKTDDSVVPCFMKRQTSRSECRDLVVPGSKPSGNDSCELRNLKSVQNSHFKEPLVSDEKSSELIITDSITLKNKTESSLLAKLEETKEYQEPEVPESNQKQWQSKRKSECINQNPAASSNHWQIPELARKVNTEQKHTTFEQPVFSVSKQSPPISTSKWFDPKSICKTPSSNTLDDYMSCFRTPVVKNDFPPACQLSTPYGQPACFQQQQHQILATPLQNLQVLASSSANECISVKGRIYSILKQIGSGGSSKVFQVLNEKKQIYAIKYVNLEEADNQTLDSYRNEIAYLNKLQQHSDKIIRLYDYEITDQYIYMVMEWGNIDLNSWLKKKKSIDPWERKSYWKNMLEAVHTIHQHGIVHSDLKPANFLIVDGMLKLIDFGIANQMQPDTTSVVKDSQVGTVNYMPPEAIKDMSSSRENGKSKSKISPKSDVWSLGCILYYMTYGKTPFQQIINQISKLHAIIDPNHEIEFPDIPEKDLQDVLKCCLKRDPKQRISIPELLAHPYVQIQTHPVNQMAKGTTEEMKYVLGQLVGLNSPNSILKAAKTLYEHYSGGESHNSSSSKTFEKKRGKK
Description: (§1) For high ATP concentration assays, 1 mM ATP was used. An ECHO® 550 (Labcyte Inc) acoustic dispenser was used to generate duplicate 8 point dilution curves directly into 384-well low-volume polystyrene assay plates (Corning Life Sciences). The reaction was carried out for 90 min at room temperature.

[2] = target: T2, recombinant full-length wild-type MPS1 (Homo sapiens, UniProt P33981); assay: Recombinant MPS1 kinase assay (electrophoretic mobility shift), WT; format: biochemical; settings: mean ± SD, quadruplicate
T2 construct: For protein expression of full-length MPS1 proteins, Sf9 insect cells were grown at 27° C; made in house; host or cells: Sf9 insect cells (baculovirus, modified pFastBac1)
T2 sequence (P33981 1-857): T1 sequence (P33981 1-857 C604W) with W604C
Description: as §1

[3] = test system: HCT116 cells containing MPS1 p.C604W; assay: Cell viability assay, HCT116 NvR clones with MPS1 p.C604W (NvR12 etc.); settings: for resistance / potency in cell viability assay vs parental: p.C604W (NvR12); for Resistance conferred by mutation p.C604W: summary table of inhibitors vs mutations; for GI50: Homo sapiens
[4] = test system: HCT116 cells containing MPS1 p.M600T; assay: Cell viability assay, HCT116 NvR clones with MPS1 p.M600T (NvR1 etc.); settings: for Resistance conferred by mutation p.M600T: summary table of inhibitors vs mutations; for GI50: Homo sapiens
parental HCT116 cells [5] = assay: Time-lapse microscopy, time in mitosis, parental HCT116; format: cell-based, human
Description: (§2) For analysis by immunofluorescence, cells were fixed in 1% formaldehyde for 5 min at room temperature, quenched in glycine, washed in PBS-Triton X-100 (0.1% PBS-T) and incubated for 1 hour in primary antibodies in PBS-T: MAD2 (Bethyl Laboratories Inc., A300-301A), CDC2020 (Millipore, MAB3775), MPS1 (Millipore, 05-682), MPS1 pT33pS37 (Life Technologies, 44-1325G) and ACA (ImmunoVision, HST-0100). After PBS-T washes, cells were incubated with fluorescent-conjugated secondary antibodies (Life Technologies), stained with DAPI (Life Technologies) and mounted onto slides with Vectashield (Vector Labs). Images were acquired using a Zeiss LSM 710 confocal microscope and processed using Velocity 3D Image analysis software (PerkinElmer). Time-lapse micrscopy was performed in 96-well Ibidi plate (Thistle Scientific) using a Diaphot inverted microscope (Nikon), in a humidified CO2 chamber at 37° C., using a motorized stage (Prior Scientific), controlled by Simple PCI software (Compix).

parental HCT116 cells [6] = assay: Flow cytometry cell cycle profiles, parental HCT116; format: cell-based, human
Description: Cells were fixed overnight at −20° C. in 70% ethanol, washed in PBS, then incubated in 10 μg/ml propidium iodide and 0.5% RNase (Sigma) for 30 min and then analysed using LSRII flow cytometer (BD Biosciences).

parental HCT116 cells [7] = assay: Cell viability assay (CellTiterGlo, 4 days), parental HCT116; format: cell-based, human
[8] = test system: taxol or nocodazole-induced SAC; assay: Abrogation of taxol or nocodazole-induced SAC (mitotic index, MPM2 staining and flow cytometry); format: cell-based; settings: within 1 hour following inhibitor treatment; 0.6 μM CCT251455
Description: Cells were fixed overnight at −20° C. in 70% ethanol, washed in PBS, then incubated in 10 μg/ml propidium iodide and 0.5% RNase (Sigma) for 30 min and then analysed using LSRII flow cytometer (BD Biosciences). To stain for mitosis, cells were incubated for 1 hour at 4° C. with anti-MPM2 antibodies (Millipore, 05-368), then 1 hour at 4° C. with FITC-conjugated secondary antibodies (Life technology).

HeLa cells = assay: Time-lapse microscopy, time in mitosis and mitotic defects, HeLa; format: cell-based; settings: 0.6 μM CCT251455
Description: as §2

[9] = test system: kinetochore localisation of SAC proteins in HeLa cells; assay: Immunofluorescence of kinetochore proteins in HeLa cells; format: cell-based
Description: as §2

[10] = ATP at Km, read-out: IC50 values at ATP Km
[11] = IC50 values at 1 mM ATP, 1 mM ATP

- IC50 [1, 10]: 2.6 ± 0.65 µM
- IC50 [1, 11]: 8.3 ± 2.9 µM
- fold resistance of recombinant p.C604W vs wild-type protein ([1]; recombinant full-length MPS1 (Table 2)): 75 fold
- IC50 [2, 10]: 0.0108 ± 0.0037 µM
- IC50 [2, 11]: 0.11 ± 0.018 µM
Compound: Cn1cc(-c2ccc(Nc3ccc(C#N)c(NC4CCCCC4)n3)cc2OCC#N)cn1 [ONCOII]
- resistance / potency in cell viability assay vs parental [3]: able to confer resistance
- Resistance conferred by mutation p.C604W [3]: R
- resistance in cell viability assay vs parental ([4]; p.M600T (NvR1)): able to confer resistance
- Resistance conferred by mutation p.M600T [4]: R

Compound: CCc1cccc(CC)c1NC(=O)c1nn(C)c2c1CCc1cnc(Nc3ccc(C(=O)NC4CCN(C)CC4)cc3OC(F)(F)F)nc1-2 [NMS-P715]
- mitotic exit (SAC override) (parental HCT116 cells [5]; 1 μM NMS-P715): rapidly exited mitosis
- GI50 ([3]; HCT-116, read-out: GI50 NMS-P715, NvR9, p.C604W): 2.15 µM
- GI50 ([3]; HCT-116, read-out: GI50 NMS-P715, NvR12, p.C604W): 2.43 µM
- GI50 ([3]; HCT-116, read-out: GI50 NMS-P715, NvR13, p.C604W): 4.25 µM
- GI50 ([3]; HCT-116, read-out: GI50 NMS-P715, NvR14, p.C604W): 3.73 µM
- GI50 ([3]; HCT-116, read-out: GI50 NMS-P715, NvR15, p.C604W): 3.82 µM
- GI50 ([3]; HCT-116, read-out: GI50 NMS-P715, NvR16, p.C604W): 3.26 µM
- GI50 ([3]; HCT-116, read-out: GI50 NMS-P715, NvR17, p.C604W): 3.76 µM
- GI50 ([3]; HCT-116, read-out: GI50 NMS-P715, NvR18, p.C604W): 3.76 µM
- GI50 ([3]; HCT-116, read-out: GI50 NMS-P715, NvR19, p.C604W): 3.5 µM
- GI50 ([3]; HCT-116, read-out: GI50 NMS-P715, NvR20, p.C604W): 3.86 µM
- GI50 ([3]; HCT-116, read-out: GI50 NMS-P715, NvR21, p.C604W): 2.12 µM
- GI50 ([3]; HCT-116, read-out: GI50 NMS-P715, NvR22, p.C604W): 2.2 µM
- GI50 ([3]; HCT-116, read-out: GI50 NMS-P715, NvR23, p.C604W): 2.27 µM
- GI50 ([3]; HCT-116, read-out: GI50 NMS-P715, NvR24, p.C604W): 2.24 µM
- GI50 ([3]; HCT-116, read-out: GI50 NMS-P715, NvR25, p.C604W): 4.33 µM
- GI50 ([3]; HCT-116, read-out: GI50 NMS-P715, NvR26, p.C604W): 2.25 µM
- GI50 ([3]; HCT-116, read-out: GI50 NMS-P715, NvR29, p.C604W): 4.08 µM
- GI50 ([3]; HCT-116, read-out: GI50 NMS-P715, NvR30, p.C604W): 1.24 µM
- GI50 ([3]; HCT-116, read-out: GI50 NMS-P715, NvR34, p.C604W): 2.09 µM
- GI50 ([3]; HCT-116, read-out: GI50 NMS-P715, NvR35, p.C604W): 2.44 µM
- GI50 ([4]; HCT-116, read-out: GI50 NMS-P715, NvR1, p.M600T): 2.54 µM
- GI50 ([4]; HCT-116, read-out: GI50 NMS-P715, NvR2, p.M600T): 1.85 µM
- GI50 ([4]; HCT-116, read-out: GI50 NMS-P715, NvR4, p.M600T): 2.25 µM
- GI50 ([4]; HCT-116, read-out: GI50 NMS-P715, NvR5, p.M600T): 2.48 µM
- GI50 ([4]; HCT-116, read-out: GI50 NMS-P715, NvR6, p.M600T): 2.32 µM

Compound: COc1cc(OC2CCN(C)CC2)ccc1Nc1ncc2c(n1)n(C1CCCC1)c(=O)n2C [AZ3146]
- time to exit mitosis (parental HCT116 cells [5]; 2 μM AZ3146): 10 min
- effect on cell cycle profile (parental HCT116 cells [6]; 1 and 2 μM AZ3146, 24 hours): G1 and G2/M peaks are increasingly abolished
- lethal concentration in cell viability assays (parental HCT116 cells [7]): 2 µM
- GI50 (parental HCT116 cells [7]; Homo sapiens, HCT-116): 0.8 µM

Compound: Cc1ncc(-c2ccc(Nc3cc4c(cn3)cc(-c3cnn(C)c3)n4C(=O)OC(C)C)c(F)c2)n1C [Compound 3, isopropyl 6-(4-(1,2-dimethyl-1H-imidazol-5-yl)-2-fluorophenylamino)-2-(1-methyl-1H-pyrazol-4-yl)-1H-pyrrolo[3,2-c]pyridine-1-carboxylate]
- resistance / potency in cell viability assay vs parental [3]: more potent
- fold resistance in cell viability assay vs parental ([4]; p.M600T (NvR1)): ~2 fold
- Resistance conferred by mutation p.M600T [4]: R

Compound: CC(C)(C)Nc1nc(Nc2ccc(C(N)=O)cc2)cc(N)c1C#N [SNG12]
- Resistance conferred by mutation p.C604W [3]: R
- Resistance conferred by mutation p.M600T [4]: R

Compound: Cn1cc(-c2cc3cnc(Nc4ccc(-c5cncn5C)cc4Cl)cc3n2C(=O)OC(C)(C)C)cn1 [CCT251455, Tert-Butyl 6-(2-Chloro-4-(1-methyl-1H-imidazol-5-yl)phenylamino)-2-(1-methyl-1H-pyrazol-4-yl)-1H-pyrrolo[3,2-c]pyridine-1-carboxylate]
- cells that had exited mitosis [8]: ~100%
- cells with unaligned chromosomes (HeLa cells): 98%
- time to exit mitosis (HeLa cells): ~17 min
- MPS1 kinetochore localisation ([9]; 0.6 μM CCT251455): increased
- MPS1 pT33/S37 and pT676 signals ([9]; 0.6 μM CCT251455): no longer visible
- kinetochore recruitment of BUB1 and BUBR1 ([9]; 0.6 μM CCT251455): reduced, but still visible by microscopy
- kinetochore recruitment of MAD2, MAD1, ZW10 and CDC20 ([9]; 0.6 μM CCT251455): severely inhibited
- kinetochore localisation of ZWINT-1, CENP-E, CENP-F and CENP-A pS7 ([9]; controls): remained unaffected
- concentration at which cell cycle profiles were abolished (parental HCT116 cells [6]; HCT116, 24 hour treatment): 0.32 µM
